From patent US6168939A, “Endopeptidase produced by Lactobacillus helveticus” (priority 1995, dated 2001)
Entries after “also recorded” stand apart in the source; their conditions may differ. Read-outs that look alike come from different tables or passages of the source. Numbered stars: 1 amine (or outer) side, 2 acyl side, 3 side chain; on linkers, the order of the positions; unused ones are H or OH. Ends that are not written are not given here. Peptide text beside a SMILES is read from it. * marks the point of attachment. pNA = O=[N+]([O-])c1ccc(N*)cc1; Suc = O=C(CCC(=O)[*:2])[*:1]; MeOSuc = COC(=O)CCC(=O)*

Tests used:
Assay type in all cases: biochemical
[1] = target: T1, endopeptidase produced by Lactobacillus helveticus (Lactobacillus helveticus, UniProt Q6UP05); test: Substrate specificity: hydrolysis of substrates by the endopeptidase; set-up: key: + represents that a substrate was hydrolyzed; - represents that a substrate was not hydrolyzed; details: 5.0 hrs
T1 construct: N-terminus […]
T1 sequence (Q6UP05 1-643): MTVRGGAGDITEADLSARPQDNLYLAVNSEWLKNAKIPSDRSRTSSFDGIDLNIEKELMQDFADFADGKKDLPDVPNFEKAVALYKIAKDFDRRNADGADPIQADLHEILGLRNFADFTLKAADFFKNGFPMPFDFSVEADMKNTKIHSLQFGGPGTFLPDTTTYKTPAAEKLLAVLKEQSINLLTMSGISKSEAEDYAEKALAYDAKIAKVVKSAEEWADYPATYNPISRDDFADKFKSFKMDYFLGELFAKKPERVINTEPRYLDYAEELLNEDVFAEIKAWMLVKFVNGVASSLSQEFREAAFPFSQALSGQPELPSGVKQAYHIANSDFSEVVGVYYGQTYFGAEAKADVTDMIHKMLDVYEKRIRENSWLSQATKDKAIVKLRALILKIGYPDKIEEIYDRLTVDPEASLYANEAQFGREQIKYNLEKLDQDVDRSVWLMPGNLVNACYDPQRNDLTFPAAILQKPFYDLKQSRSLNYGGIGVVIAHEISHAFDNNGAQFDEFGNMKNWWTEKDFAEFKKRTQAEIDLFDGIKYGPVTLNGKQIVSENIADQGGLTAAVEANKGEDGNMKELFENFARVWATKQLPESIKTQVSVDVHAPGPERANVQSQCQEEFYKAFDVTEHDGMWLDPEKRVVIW
Procedure: The substrate specificity of the endopeptidase of the present invention was determined. In 200 μl of 2 to 5 mM substrate in 50 mM HEPES buffer, pH 7.0, 10 μl of the endopeptidase solution of the present invention in 50 mM HEPES buffer, pH 7.0, at five μg/ml was added and incubated at 30° C. for 5.0 hrs. Then, the reaction mixture was applied to reversed phase chromatography and eluted using linear increase of concentration of acetonitrile in 0.1% trifluoroacetic acid from zero to 60%. The hydrolysis was determined from the decrease of the peak area of the substrate and/or the appearance of a new peak(s) at 214 nm on the chromatogram.

[2] = target: T1, endopeptidase produced by Lactobacillus helveticus
Procedure: (§1) The influences of enzyme inhibitors on the-activity of the endopeptidase of the present invention was determined. The purified endopeptidase (0.5 μg protein/ml) in 40 mM HEPES, pH7.0, was incubated for 30 min. at 4° C. with 0.001 to 2.0 mM enzyme inhibitors. After pre-incubating the enzyme mixture for 5 min. at 30° C., 1 mM Tyr-Gly-Gly-Phe-Met (SEQ ID NO: 2) was added to start the reaction and the mixture was incubated for 20 min. at 30° C. The reaction was stopped by 10% acetic acid.
The enzyme activity was determined by reversed phase chromatography.

[3] = target: T1, endopeptidase produced by Lactobacillus helveticus; test: Influence of metal ions on endopeptidase activity; details: method according to Test example 7
Procedure: as §1
The influences of metal ions to the activity of the endopeptidase of the present invention was determined similarly by the method according to Test example 7. The enzyme activity was inhibited by Cu^2+, Zn^2+ and Fe^2+.

[4] = 2 to 5 mM substrate, 50 mM HEPES pH 7.0, 30° C.
[5] = 0.001 to 2.0 mM inhibitor, 30 min. at 4° C., 1 mM Tyr-Gly-Gly-Phe-Met, pH 7.0, 30° C.

With `O=C(Nc1ccc([N+](=O)[O-])cc1)[C@@H]1CCCN1` [Pro-pNA] the Hydrolysis [1, 4] was “-”.

Dynorphin A was tested, and the Hydrolysis [1, 4] was “+”.

`O=S(=O)(F)Cc1ccccc1` [phenylmethylsulfonyl fluoride] was tested, and the “inhibition of endopeptidase activity by enzyme inhibitors” value (“inhibition … by enzyme inhibitors” for short) [2, 5] was “no inhibition”.

In the case of Met-Gly-Gly, the Hydrolysis [1, 4] is reported as “-”.

For Ala-Ala-Ala-Ala-Ala, the Hydrolysis [1, 4] was “+”.

With `[Zn+2]` [Zn^2+] the “inhibition of endopeptidase activity by metal ions” value (“inhibition … by metal ions” below) [3] was “inhibited”.

In the case of RPPGFSPFR [Bradykinin], the Hydrolysis [1, 4] is reported as “+”.

With “β-Casein, f203-209: β-Casein fragment 203-209, 7 amino acid residues (GPFPIIV; UniProt P02666 218-224, looked up, fragment)” the Hydrolysis [1, 4] was “+”.

In the case of “Parathyroid hormone, human, f1-34: human parathyroid hormone fragment 1-34, 34 amino acid residues”, the Hydrolysis [1, 4] is reported as “+”.

For `[Fe+2]` [Fe^2+], the “inhibition … by metal ions” value [3] was “inhibited”.

For Phe-Met, the Hydrolysis [1, 4] was “-”.

For `NCCCC[C@H](N)C(=O)Nc1ccc([N+](=O)[O-])cc1` [Lys-pNA], the Hydrolysis [1, 4] was “-”.

Gly-Pro-Gly-Gly (GPGG) was tested, and the Hydrolysis [1, 4] was “-”.

With `COC(=O)CCC(=O)N[C@@H](CCCNC(=N)N)C(=O)N1CCC[C@H]1C(=O)N[C@@H](Cc1ccc(O)cc1)C(=O)Nc1ccc([N+](=O)[O-])cc1` [MeO-Suc-Arg-Pro-Tyr-pNA] (MeOSuc-Arg-Pro-Tyr-pNA) the Hydrolysis [1, 4] was “-” and the Hydrolysis ([1]; substrate + LAP (leucine aminopeptidase), pH 7.0, 30° C.) was “+”.

For Pro-Gly-Lys-Ala-Arg (PGKAR), the Hydrolysis [1, 4] was “-”.

κ-Casein: casein protein substrate was tested, and the Hydrolysis [1, 4] was “-”.

With Leu-Gly-Gly the Hydrolysis [1, 4] was “-”.

“Parathyroid hormone, human, f13-34: human parathyroid hormone fragment 13-34, 22 amino acid residues (KHLNSMERVEWLRKKLQDVHNF; Parathyroid hormone; UniProt P01270 44-65, looked up, fragment)” was tested, and the Hydrolysis [1, 4] was “+”.

`[Cu+2]` [Cu^2+] was tested, and the “inhibition … by metal ions” value [3] was “inhibited”.

In the case of Leu-Leu-Leu, the Hydrolysis [1, 4] is reported as “+”.

In the case of Tyr-Gly-Gly, the Hydrolysis [1, 4] is reported as “-”.

Leu-Leu was tested, and the Hydrolysis [1, 4] was “-”.

For “β-Casein, f108-113: β-Casein fragment 108-113, 6 amino acid residues (EMPFPK; UniProt P02666 123-128, looked up, fragment)”, the Hydrolysis [1, 4] was “+”.

With Z-Phe-Ala the Hydrolysis [1, 4] was “-”.

In the case of Ala-Ala-Ala-Ala-Ala-Ala, the Hydrolysis [1, 4] is reported as “+”.

For `c1cnc2c(c1)ccc1cccnc12` [1,10-phenanthroline], the “inhibition … by enzyme inhibitors” value [2, 5] was “inhibited; also recorded: inhibition”.

Ala-Pro-pNA was tested, and the Hydrolysis [1, 4] was “-”.

For `CC(C)C[C@H](NC(=O)[C@@H]1CCCN1C(=O)[C@H](C)NC(=O)[C@H](C)NC(=O)CCC(=O)O)C(=O)Nc1ccc([N+](=O)[O-])cc1` [Suc-Ala-Ala-Pro-Leu-pNA] (Suc-AAPL-pNA), the Hydrolysis [1, 4] was “-”.

In the case of `O=C(O)CN(CCN(CC(=O)O)CC(=O)O)CC(=O)O` [EDTA, ethylenediaminetetraacetic acid], the “inhibition … by enzyme inhibitors” value ([2]; pH 7) is reported as “inhibited; also recorded: inhibition”.

For Insulin β-chain, the Hydrolysis [1, 4] was “+”.

With Pro-Lys-Gly-Gly (PKGG) the Hydrolysis [1, 4] was “-”.

For Pro-Ala, the Hydrolysis [1, 4] was “-”.

With Phe-Val the Hydrolysis [1, 4] was “-”.

In the case of “Parathyroid hormone, human, f1-38: human parathyroid hormone fragment 1-38, 38 amino acid residues (SVSEIQLMHNLGKHLNSMERVEWLRKKLQDVHNFVALG; Parathyroid hormone; UniProt P01270 32-69, looked up, fragment)”, the Hydrolysis [1, 4] is reported as “-”.

`O=C(O)CCC(=O)N[C@@H](Cc1ccccc1)C(=O)Nc1ccc([N+](=O)[O-])cc1` [Suc-Phe-pNA] was tested, and the Hydrolysis [1, 4] was “-”.

Gly-Pro-Arg-Pro (GPRP) was tested, and the Hydrolysis [1, 4] was “-”.

For `CSCC[C@H](NC(=O)[C@H](CC(C)C)NC(=O)CNC(=O)[C@H](Cc1ccccc1)NC(=O)[C@H](Cc1ccccc1)NC(=O)[C@H](CCC(N)=O)NC(=O)[C@H](CCC(N)=O)NC(=O)[C@@H]1CCCN1C(=O)[C@H](CCCCN)NC(=O)[C@@H]1CCCN1C(=O)[C@@H](N)CCCNC(=N)N)C(N)=O` [Substance P], the Hydrolysis [1, 4] was “+”.

`CSCC[C@H](NC(=O)[C@H](Cc1ccccc1)NC(=O)CNC(=O)CNC(=O)[C@@H](N)Cc1ccc(O)cc1)C(=O)O` [Met-Enkephalin] was tested, and the Hydrolysis [1, 4] was “+”.

“Angiotensin (DRVYIHPFHL; Angiotensin-1; UniProt P01019 25-34, looked up)” was tested, and the Hydrolysis [1, 4] was “+”.

For `O=S(=O)(O)c1cc[c]([Hg][Cl])cc1` [p-CMBS, p-chloromercuribenzenesulfonic acid], the “inhibition … by enzyme inhibitors” value [2, 5] was “inhibited; also recorded: inhibition”.

With Bzl-Cys-pNA the Hydrolysis [1, 4] was “-”.

In the case of Ala-Ala-Ala-Ala (AAAA), the Hydrolysis [1, 4] is reported as “+”.

`O=C(O)CI` [iodoacetic acid] was tested, and the “inhibition … by enzyme inhibitors” value ([2]; pH 7) was “no inhibition”.

For Neurotensin, the Hydrolysis [1, 4] was “+”.

For β-Casomorphin, the Hydrolysis [1, 4] was “-”.

“Parathyroid hormone, human, f1-44: human parathyroid hormone fragment 1-44, 44 amino acid residues (SVSEIQLMHNLGKHLNSMERVEWLRKKLQDVHNFVALGAPLAPR; Parathyroid hormone; UniProt P01270 32-75, looked up, fragment)” was tested, and the Hydrolysis [1, 4] was “-”.

In the case of Pro-Gly-Gly, the Hydrolysis [1, 4] is reported as “-”.

B1: β-Casein: casein protein substrate (protein, UniProt P02666 16-224, looked up)
Beta-casein: RELEELNVPGEIVESLSSSEESITRINKKIEKFQSEEQQQTEDELQDKIHPFAQTQSLVYPFPGPIPNSLPQNIPPLTQTPVVVPPFLQPEVMGVSKVKEAMAPKHKEMPFPKYPVEPFTESQSLTLTDVENLHLPLPLLQSWMHQPHQPLPPTVMFPPQSVLSLSQSKVLPVPQKAVPYPQRDMPIQAFLLYQEPVLGPVRGPFPIIV
In the case of B1, the Hydrolysis [1, 4] is reported as “-”.

B2: α51 -Casein: casein protein substrate (probably αs1-casein) (protein, UniProt P02662 16-214, looked up)
Alpha-S1-casein: RPKHPIKHQGLPQEVLNENLLRFFVAPFPEVFGKEKVNELSKDIGSESTEDQAMEDIKQMEAESISSSEEIVPNSVEQKHIQKEDVPSERYLGYLEQLLRLKKYKVPQLEIVPNSAEERLHSMKEGIHAQQKEPMIGVNQELAYFYPELFRQFYQLDAYPSGAWYYVPLGTQYTDAPSFSDIPNPIGSENSEKTTMPLW
For B2, the Hydrolysis [1, 4] was “-”.
